Key:
[1] = orally administered to rat, in comparison with no compound; cited from earlier work
[2] = Oral glucose tolerance test (OGTT) in normal rats: plasma glucose and plasma insulin; assay type: in vivo; conditions: for Plasma glucose 0 hr / Plasma insulin 0 hr / Plasma glucose 0.25 hr / Plasma insulin 0.25 hr / Plasma glucose 0.5 hr / Plasma insulin 0.5 hr / Plasma glucose 1 hr / Plasma insulin 1 hr / Plasma glucose 2 hr / Plasma insulin 2 hr / Plasma glucose 4 hr / Plasma insulin 4 hr / Plasma glucose ΔAUC 0-1 hr / Plasma insulin ΔAUC 0-1 hr: oral, KGT-1681 3 mg/kg, KGA-3235 0.03 mg/kg, Combo 3 and 0.03 mg/kg; for Effect on increase in plasma glucose after glucose loading: FIG. 1A; for Two-way ANOVA main effect in AUC0-1hr for plasma glucose: FIG. 1B; for Effect on plasma insulin: FIG. 2A
Protocol: Example 1. Combination treatment with mizagliflozin and remogliflozin. Combination treatment with KGT-1681 and KGA-3235 in normal rats. KGT-1681 was suspended in 0.1% methylcellulose (MC) and KGA-3235 was dissolved in distilled water (DW). Rats (9 weeks of age) were divided into the following four groups and treated as indicated: vehicle, 0.1% MC+DW; KGT, KGT-1681 (3 mg/kg, 5 mL/kg) plus DW; KGA, 0.1% MC plus KGA-3235 (0.03 mg/kg, 5 mL/kg); and Combo, KGT-1681 plus KGA-3235 (3 and 0.03 mg/kg, respectively). After 16 h fasting, the drug and glucose solution (400 g/L, 5 ml/kg) were orally administered to rats. Blood was obtained in heparinized and aprotinin-treated tubes from a tail vein at each sampling point. Plasma glucose concentration was determined using a Glucose CII-test Wako (Wako Pure Chemicals, Osaka, Japan). Plasma insulin was determined using an enzyme-linked immunosorbent assay kit (Morinaga Institute of Biological Science, Inc., Yokohama, Japan). The area under the curve (AUC)0-1 hr for plasma glucose and insulin were calculated from the plasma glucose and insulin concentrations during the OGTT (Table 1).

[3] = pre-treatment before mixed meal, cited from earlier work

SMILES	Plasma glucose 0 hr [2] [mg/dL]	Plasma insulin 0 hr [2] [pg/mL]	Plasma glucose 0.25 hr [2] [mg/dL]	Plasma insulin 0.25 hr [2] [pg/mL]	Plasma glucose 0.5 hr [2] [mg/dL]	Plasma insulin 0.5 hr [2] [pg/mL]	Plasma glucose 1 hr [2] [mg/dL]	Plasma insulin 1 hr [2] [pg/mL]	Plasma glucose 2 hr [2] [mg/dL]	Plasma insulin 2 hr [2] [pg/mL]	Plasma glucose 4 hr [2] [mg/dL]	Plasma insulin 4 hr [2] [pg/mL]	Effect on increase in plasma glucose after glucose loading [2]	Two-way ANOVA main effect in AUC0-1hr for plasma glucose [2]	Effect on plasma insulin [2]	Plasma glucose ΔAUC 0-1 hr [2] [mg·h/dL]	Plasma insulin ΔAUC 0-1 hr [2] [pg·h/mL]	further results
CCOC(=O)OC[C@H]1O[C@@H](Oc2ccccc2Cc2ccc(OC)cc2)[C@H](O)[C@@H](O)[C@@H]1O [2-(4-methoxybenzyl)phenyl 6-O-ethoxycarbonyl-β-D-glucopyranoside]	–	–	–	–	–	–	–	–	–	–	–	–	–	–	–	–	–	Increase of lipid accumulative amount in rat liver [1]: inhibited significantly
Cc1cc(OCCCNCC(C)(C)C(N)=O)ccc1Cc1c(O[C@@H]2O[C@H](CO)[C@@H](O)[C@H](O)[C@H]2O)n[nH]c1C(C)C [KGA-3235, 3-(3-{4-[3-(β-D-glucopyranosyloxy)-5-isopropyl-1H-pyrazol-4-ylmethyl-]-3-methylphenoxy}propylamino)-2,2-dimethylpropionamide]	92 ± 4	278 ± 25	147 ± 7	1197 ± 146	164 ± 5	1014 ± 131	169 ± 5	933 ± 111	136 ± 2	551 ± 98	80 ± 3	286 ± 39	inhibited the increase in plasm glucose	significant main effect	decreased	152 ± 4	948 ± 88	–
CCOC(=O)OC[C@H]1O[C@@H](Oc2nn(C(C)C)c(C)c2Cc2ccc(OC(C)C)cc2)[C@H](O)[C@@H](O)[C@@H]1O [KGT-1681, 5-methyl-4-[4-(1-methylethoxy)benzyl]-1-(1-methylethyl)-1H-pyrazol-3-yl 6-O-(ethoxycarbonyl)-β-D glucopyranoside]	101 ± 3	380 ± 29	146 ± 5	1219 ± 183	163 ± 7	978 ± 182	168 ± 6	1187 ± 152	113 ± 5	425 ± 40	85 ± 2	338 ± 92	inhibited the increase in plasm glucose	significant main effect	decreased	152 ± 5	1020 ± 148	–
OC[C@H]1O[C@@H](c2ccc(Cl)c(Cc3ccc(O[C@H]4CCOC4)cc3)c2)[C@H](O)[C@@H](O)[C@@H]1O [empagliflozin]	–	–	–	–	–	–	–	–	–	–	–	–	–	–	–	–	–	Severity of hypoglycemic events ([3]; versus placebo, p=0.037): significantly reduced; Nadir glucose values [3]: significantly increased; Events requiring rescue glucose administration ([3]; placebo 7 of 12 patients): two
